Data: patent publication US20210315841A1, “CYCLOBENZAPRINE TREATMENT FOR SEXUAL DYSFUNCTION” (TONIX PHARMACEUTICALS HOLDING CORP., priority 2020, published 2021)
Counter-ions that a name gives are not always drawn.

Tests used:
[1] = test system: females with predominantly civilian PTSD; details: female completers, 5.6 mg dose (N=58) vs placebo (N=55), 12 weeks
Procedure: (§1) Three randomized, placebo-controlled and double-blind clinical trials of the above described 5.6 mg cyclobenzaprine-HCl sublingual formulation (2×2.8 mg tablets) were performed, a Phase 2 study and a Phase 3 study in military-related PTSD, and a Phase 3 study in predominantly civilian PTSD. […] The present retrospective analysis examined the activity of the cyclobenzaprine-HCl sublingual formulation on the Changes in Sexual Functioning Questionnaire short form (CSFQ-14) in the two Phase 3 studies.
(§2) In the Phase 3 study in predominantly civilian PTSD, the inclusion criteria were broadened to include civilian participants with current PTSD, as determined by the CAPS-5. Accordingly, this study included 94% civilian trauma with a minimum baseline severity score of >33 on the CAPS-5. […] Thus, analyses were conducted on the interim analysis sample of 252 participants in the military Phase 3 study (89% male [n=225 M; n=27 F]; 100% military PTSD) and […] subjects in the civilian Phase 3 study (79% female [n=129 F; n=34 M]; 94% civilian PTSD).
(§3) The CSFQ-14 is a validated 14-item measure (Keller, McGarvey, Clayton, 2006) that has male and female versions which were analyzed separately. In addition to a total sexual functioning score, there are five sub-scales: desire/frequency, desire/interest, arousal/excitement, orgasm/complete, and pleasure. The items range on 5-point Likert scale from (never) to (every day). Higher scores reflect greater levels of sexual functioning.

[2] = test system: participants with military-related PTSD; details: Phase 2 study, drug and placebo groups
Procedure: as §1

participants with PTSD [3] = details: 5.6 mg dose, all three trials (Phase 2 and two Phase 3)
Procedure: as §1

participants with PTSD [4] = details: 5.6 mg sublingual dose, both Phase 3 studies
Procedure: as §1, §2

[5] = test system: females with military-related PTSD; details: 5.6 mg dose (N=8) vs placebo (N=16), 12 weeks
Procedure: (§4) Methods: In this 12-week, multicenter, adaptive design, randomized controlled fixed-dose trial, 5.6 mg cyclobenzaprine-HCl (2×2.8 mg sublingual tablets, comprising a 75%±2% cyclobenzaprine-HCl and 25%±2% mannitol eutectic and a potassium phosphate dibasic anhydrous basifying agent) taken daily at bedtime was compared to placebo for the treatment of PTSD at 45 U.S. sites. […] A pre-planned interim analysis was conducted when about half the originally planned sample of 550 participants had outcome data.
(§5) The modified intention-to-treat (mITT) population, which included all randomized subjects with at least one post-baseline CAPS-5, included 125 participants treated with 5.6 mg dose per day the above cyclobenzaprine-HCl sublingual formulation and 127 participants on placebo were studied.
Sexual functioning was measured by Changes in Sexual Functioning Questionnaire short-form (CSFQ-14) which is a validated 14-item measure (Keller, McGarvey, Clayton, 2006). Parallel gender-specific versions are administered to males (CSFQ-14-M) and females (CSFQ-14-F), and each sex was analyzed separately. In addition to a total sexual functioning score, there are five sub-scales: desire/frequency, desire/interest, arousal/excitement, orgasm/complete, and pleasure. The scales range from (never) to (every day) and higher scores reflect greater levels of sexual functioning.
as §2, §3

[6] = test system: females with military-related PTSD; details: female subgroup (10 active, 17 placebo), 5.6 mg per day sublingual, after 12 weeks of treatment
Procedure: as §4, §5

[7] = test system: participants with military-related PTSD
Procedure: as §4, §5

[8] = 5.6 mg sublingual daily, military Phase 3 study

CN(C)CCC=C1c2ccccc2C=Cc2ccccc21 [cyclobenzaprine-HCl]
CSFQ-14-F arousal/excitement subscale, Hedges' g effect size vs placebo [1]: 0.33 | CSFQ-14-F desire/frequency subscale, Hedges' g effect size vs placebo [1]: 0.21 | CSFQ-14-F desire/interest subscale, Hedges' g effect size vs placebo [1]: 0.23 | CSFQ-14-F orgasm/completion subscale, Hedges' g effect size vs placebo [1]: 0.29 | CSFQ-14-F pleasure subscale, Hedges' g effect size vs placebo [1]: 0.19 | CSFQ-14-F total score, Hedges' g effect size vs placebo ([1]; p=0.07): 0.37 | rates of adverse events related to sexual function [2]: very low rates | activity on clinician- and patient-rated global PTSD symptoms (CGI and PGIC) (participants with PTSD [3]): encouraging activity | severity of oral hypoaesthesia (most frequent AE) (participants with PTSD [4]): never rated as severe | severity of somnolence (most common systemic AE) (participants with PTSD [4]): never rated as severe | duration of oral hypoaesthesia (tongue/mouth numbness), the most frequent AE, post administration (participants with PTSD [4]; generally transient): < 60 min | CSFQ-14-F arousal/excitement subscale, Hedges' g effect size vs placebo [5]: 0.55 | CSFQ-14-F desire/frequency subscale, Hedges' g effect size vs placebo [5]: 0.46 | CSFQ-14-F desire/interest subscale, Hedges' g effect size vs placebo [5]: 0.63 | CSFQ-14-F orgasm/completion scale, effect vs placebo [5]: No effect | CSFQ-14-F pleasure subscale, Hedges' g effect size vs placebo [5]: 0.54 | CSFQ-14-F total score, Hedges' g effect size vs placebo [5]: 0.49 | observed mean improvement in CAPS-5 over placebo [6]: −9.1 units | participants with at least one AE leading to study discontinuation ([7]; 5.6 mg dose group, military Phase 3 study (placebo: two)): 8 participants | duration of oral hypoaesthesia (tongue/mouth numbness), the most frequent AE, post administration ([7]; 5.6 mg sublingual daily at bedtime, military Phase 3 study, generally transient): < 60 min | severity of oral hypoaesthesia (most frequent AE) [7, 8]: never rated as severe | severity of somnolence (most common systemic AE) [7, 8]: never rated as severe
